Assay results published in patent publication US11779572B1, “Methods of treating gastrointestinal stromal tumors” (Deciphera Pharmaceuticals, LLC, priority 2022, dated 2023).

Assays:
[1] = test system: plasma proteins; test: Unbound fraction / plasma protein binding; assay type: in vitro ADME, human
Description: (§1) Both ripretinib and DP-5439 display high binding to plasma proteins in vitro; therefore, clinical samples were collected to investigate the effect of HI on the unbound fraction (fu) % for both analytes. Distributions of individual mean fu % for both ripretinib and DP-5439 show high variability between participants. The ripretinib mean fu % was ≤0.6% in healthy participants and in participants with hepatic impairment. The DP-5439 fu % was ≤0.5% in healthy participants and 0.2% to 1.4% in participants with hepatic impairment. No clear trend could be established between unbound ripretinib and DP-5439 PK parameters and the degrees of HI.

[2] = Unbound fraction / plasma protein binding; assay type: in vitro ADME, human; conditions: human, plasma, oral, 50 mg, healthy participants and participants with hepatic impairment; clinical samples; read-out: mean unbound fraction fu %
Description: as §1

[3] = test system: patients with advanced GIST; test: Example 1 study: patient reported outcomes (EQ-5D-5L VAS, EORTC QLQ-C30); assay type: in vivo, human; conditions: 150 mg QD
Description: Patient reported outcomes were assessed by EQ-5D-5L, which provides a visual analogue scale (VAS), and EORTC QLQ-C30, which provides physical function and role function scales. The EQ-5D-5L VAS (or EQ-VAS) records the respondent's overall current health on a vertical visual analogue scale and provides a quantitative measure of the patient's perception of overall health. These patient outcomes were reported across 28-day cycles of receiving 150 mg QD ripretinib or placebo.
The EORTC QLQ-C30 is an assessment of function and symptoms of therapy by cancer patient, and is not specific to any cancer. The EORTC QLQ-C30 is a 30-question plus one global health status, including 5 functional scales, 3 symptom scales and a global health status.

[4] = molecular target: T1, CYP2C8 (Homo sapiens, UniProt P10632); test: Contribution of CYP enzymes to metabolism, in vitro data; assay type: in vitro ADME; conditions: base model, based on in vitro data
T1 sequence (P10632 1-490): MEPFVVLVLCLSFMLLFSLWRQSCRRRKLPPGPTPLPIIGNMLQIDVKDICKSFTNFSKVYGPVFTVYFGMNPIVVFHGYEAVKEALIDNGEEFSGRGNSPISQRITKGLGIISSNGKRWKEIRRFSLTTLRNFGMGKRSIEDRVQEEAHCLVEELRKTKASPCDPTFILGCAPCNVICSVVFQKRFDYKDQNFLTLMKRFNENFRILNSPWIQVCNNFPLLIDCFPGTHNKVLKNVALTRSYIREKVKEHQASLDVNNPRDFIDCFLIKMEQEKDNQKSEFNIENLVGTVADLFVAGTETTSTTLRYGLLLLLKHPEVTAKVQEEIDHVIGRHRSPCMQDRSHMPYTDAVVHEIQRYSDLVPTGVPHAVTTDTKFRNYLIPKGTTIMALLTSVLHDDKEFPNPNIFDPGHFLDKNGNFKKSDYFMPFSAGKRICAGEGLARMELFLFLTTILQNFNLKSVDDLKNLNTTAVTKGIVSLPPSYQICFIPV
Description: A PBPK model that included a mechanistic absorption model was developed.

[5] = Observed clinical PK after single and multiple doses; assay type: in vivo; conditions: human, plasma, oral; SD administration, healthy participants
Description: CYP3A4 inactivation parameters and induction parameters were subsequently incorporated in the model to assess the net effect on drug clearance at steady state. Due to the uncertainty in the in vitro CYP3A4 MBI data and CYP3A4 induction data, a series of sensitivity analysis was performed. […] Therefore, the in vitro CYP3A4 interaction data were used in the final model. The simulated profiles of ripretinib and DP-5439 in virtual participants were compared to the clinical data. […] The predicted mean AUC0-12 values for DP-5439 on Day 1 were within 2-fold (majority within 1.5-fold) of the observed values, except for the 250-mg QD dose. The mean AUC0-12 and Cmax values for DP-5439 on Day 15 were under-predicted. […] For example, the reported AUCs for ripretinib and DP-5439 at the 150-mg QD dose level were 1.66 and 5.29, respectively. […] The mechanisms for the accumulation of DP-5439 were unclear.

[6] = Food effect (high-fat meal) on exposure; assay type: in vivo, human; conditions: 150 mg dose of ripretinib
Description: The effect of a high-fat breakfast on ripretinib and Compound A exposure was evaluated. A high fat meal consisted of approximately 150, 250, and 500-600 calories from protein, carbohydrate, and fat, respectively. […] The food effect is not considered to be clinically significant based on exposure-response analysis. Therefore, ripretinib may be taken with or without food at approximately same time each day.

CCn1c(=O)c(-c2cc(NC(=O)Nc3ccccc3)c(F)cc2Br)cc2cnc(NC)cc21 [ripretinib]
binding to plasma proteins ([1]; in vitro): high binding
impact of HI (albumin, ALP, ALT, AST, bilirubin changes) on unbound exposure ([1]; visual assessment): did not appear to have an impact
fraction unbound [2]: ≤ 0.006
EORTC QLQ-C30 physical function score, average improvement from baseline ([3]; baseline to C2D1): 1.6
EORTC QLQ-C30 role function score, average improvement from baseline ([3]; baseline to C2D1): 3.5
EQ-VAS score, average improvement from baseline ([3]; baseline to Cycle 2, Day 1): 3.7
EORTC QLQ-C30 Question C29 (overall health) score improvement ([3]; scale 1 to 7): 0.20
EORTC QLQ-C30 Question C30 (overall quality of life) score improvement ([3]; scale 1 to 7): 0.28
share of metabolism assigned to CYP2C8 [4]: 23%
half-life [5]: ~14 h
AUC0-24h higher with a high-fat meal [6]: 30%
Cmax higher with a high-fat meal [6]: 22%
